{"source": "patent US20090010873A1", "about": "“Methods of Cell Therapy, Neurogenesis and Oligodendrogenesis” (YEDA RESEARCH AND DEVELOPMENT CO. LTD., priority 2004, published 2009)", "key": {"[1]": {"test_system": "APP/PS1 Tg mice", "assay": "GA vaccination of APP/PS1 Tg mice: hippocampal histology (plaques, microglia, neurons, neurogenesis)", "assay_type": "in vivo, mouse", "method": "(xlviii) Glatiramer acetate vaccination. Each mouse was subcutaneously injected five times with a total of 100 μg of glatiramer acetate (GA (TV-5010), MW 13.5-18.5 kDa, average 16 kDa, Teva Pharmaceutical Industries Ltd., Petach Tikva, Israel), emulsified in 200 μl PBS×1, from experimental day 0 until day 24, twice during the first week and once a week thereafter.\n(l) Administration of BrdU and tissue preparation. BrdU was dissolved by sonication in PBS and injected i.p. into each mouse (50 mg/kg body weight; 1.25 mg BrdU in 200 μl PBS×1). Starting from experimental day 22 after the first GA vaccination, BrdU was injected i.p. twice daily, every 12 h for 2.5 days, to label proliferating cells. Three weeks after the first BrdU injection the mice were deeply anesthetized and perfused transcardially, first with PBS and then with 4% paraformaldehyde. The whole brain was removed, postfixed overnight, and then equilibrated in phosphate-buffered 30% sucrose. Free-floating 30-μm sections were collected on a freezing microtome (Leica SM2000R) and stored at 4° C. prior to immunohistochemistry.\nFor immunohistochemistry, tissue sections were treated with a permeabilization/blocking solution containing 10% FCS, 2% bovine serum albumin, 1% glycine, and 0.05% Triton X-100 (Sigma-Aldrich, St. Louis). Tissue sections were stained overnight at 4° C. with specified combinations of the following primary antibodies: rat anti-BrdU (1:200; Oxford Biotechnology, Kidlington, Oxfordshire, UK), goat anti-DCX [doublecortin] (1:400; Santa Cruz Biotechnology), and mouse anti-NeuN [neuronal nuclear protein] (1:200; Chemicon, Temecula, Calif.). Secondary antibodies were FITC-conjugated donkey anti-goat, Cy-3-conjugated donkey anti-mouse, and Cy-3- or Cy-5-conjugated donkey anti-rat (1:200; Jackson ImmunoResearch, West Grove, Pa.). For labeling of microglia we used either CD11b (MAC1; 1:50; BD-Pharmingen) or FITC-conjugated Bandeiraea simplicifolia isolectin B4 (IB4, 1:50; Sigma-Aldrich, Rehovot). To detect expression of cell-surface MHC-II proteins we used anti-MHC-II Abs (rat, clone IBL-5/22; 1:50; Chemicon, Temecula, Calif.). To detect expression of human Aβ we used anti-Aβ (human amino-acid residues 1-17) (mouse, clone 6E10, Chemicon, Temecula, Calif.). Expression of IGF-I was detected by goat anti-IGF-I Abs (1:20; R&D Systems). Expression of TNF-α was detected by goat anti-TNF-α Abs (1:100; R&D Systems). T cells were detected with anti-CD3 polyclonal Abs (rabbit, 1:100; DakoCytomation, Calif.). Propidium iodide (1 μg/ml; Molecular Probes, Invitrogen, Carlsbad, Calif.) was used for nuclear staining.\nFor in-vivo experiments, the number of Aβ^+ plaques and CD11b^+/IB-4^+ microglia in the hippocampus were counted at 300-μm intervals from 6-8 coronal sections (30 μm) from each mouse. Neurogenesis in the DG was evaluated by counting of premature neurons (DCX^+), proliferating cells (BrdU^+), and newly formed mature neurons (BrdU^+/NeuN^+) in six coronal sections (30 μm) from each mouse. Specificity of BrdU^+/NeuN^+ co-expression was assayed using the confocal microscope (LSM 510) in optical sections at 1-μm intervals/. Cell counts, numbers of Aβ^+ plaques, plaque areas, and intensity of NeuN staining per unit area in the DG were evaluated automatically using Image-Pro Plus 4.5 software (Media Cybernetics)."}, "[2]": {"test_system": "APP/PS1 Tg mice", "assay": "GA vaccination of APP/PS1 Tg mice: Morris water maze", "assay_type": "in vivo, mouse", "settings": "five weeks after first GA injection, vs untreated Tg mice"}}, "data": [{"substance": "glatiramer acetate [GA]", "values": [{"measurement": "number of Aβ plaques in hippocampus", "setting": "[1]; 6 weeks later, vs untreated Tg mice", "value": "significantly fewer plaques"}, {"measurement": "newly formed mature neurons (BrdU^+/NeuN^+)", "setting": "[1]; compared to non-Tg littermates", "value": "similar"}, {"measurement": "DCX^+ cells in dentate gyrus", "setting": "[1]; relative to non-Tg littermates", "value": "slightly but significantly more"}, {"measurement": "BrdU^+ cells in dentate gyrus", "setting": "[1]; vs untreated Tg mice", "value": "significantly more BrdU^+ cells"}, {"measurement": "CD11b^+ microglia", "setting": "[1]; vs untreated Tg mice", "value": "significantly fewer CD11b^+ microglia"}, {"measurement": "area occupied by the plaques", "setting": "[1]; vs untreated Tg mice", "value": "significantly smaller"}, {"measurement": "staining for NeuN", "setting": "[1]; vs untreated Tg mice", "value": "significantly more intense staining for NeuN"}, {"measurement": "MWM performance (spatial learning/memory)", "setting": "[2]", "value": "superior to that of the untreated Tg mice"}]}]}
